Paper PMC12560828, “Chemical structure drives developmental toxicity of alkyl-substituted naphthalenes in zebrafish” (Environment international, 2025)

Experiments:
[1] = tested on: zebrafish larvae, 120 hpf; test: Larval photomotor response (LPR) assay after vial exposure; assay type: in vivo, Danio rerio; conditions: for fold_change: LPR
Procedure: (§1) When embryos were 6 hpf they were bleached in groups of 1000 or less to limit bacterial growth in sealed vials. Embryos were placed in a strainer for transfer between solutions in 500 mL containers. […] Pools of eight embryos were placed into 2 mL clear glass screw cap exposure vials with polyvinyl-faced pulp liner (Avantar Radnor, PA, United States) using a glass Pasteur pipette. Excess EM was removed, and 2 mL of fresh EM was immediately added. A total of 10 uL of 200x working stock (in DMSO) was added to each vial, then immediately capped and inverted three times to mix. […] Vials were loaded into a custom 3D printed vial holder for slow end-over-end rotation in a dark 28 °C incubator overnight. […] At 24 hpf, embryos were removed from exposure vials and singulated into 96-well plates loaded with 100 μL chemical-free EM. Each exposure vial group was maintained in plate columns. After loading into 96-well plates, embryos were assessed for 24-hour mortality. For the remainder of the exposure, plates were kept stationary at 28 °C in the dark, until 120 hpf when morphology screening and the larval photo motor response (LPR) assay were conducted, section 2.3.2 and section 2.3.3, respectively.
Each treatment group was replicated over four vials, resulting in 32 embryos per treatment, split over two replicate 96-well plates per chemical. […] Vial groups of plated larvae were tracked to assess the impact of the vial on the results. All reported concentrations were nominal water concentrations and are included in SI-T4.
The LPR assay was conducted at 120 hpf. […] Larval movement was tracked throughout minutes 6–24. Animals dead or morphologically abnormal were excluded from the analysis, and if more than 30 % of the wells in a treatment group were excluded, the treatment was removed.
Movement values were binned into 6s intervals, log normalized and used to calculate area under the curve (AUC). AUC values from the first cycle after calibration were used to calculate the LEL for each period (light and dark).

[2] = tested on: early life stage zebrafish (Danio rerio) embryos; test: Developmental toxicity morphology screen, sealed rotating vial exposure; assay type: in vivo; set-up: bmd, MO24 / bmd, MORT / bmd, ANY_ / bmd, AXIS / bmd, CRAN / bmd, EDEM / bmd, LTRK / bmd, MUSC / bmdL, ANY_ / bmdU, ANY_ / bmdL, AXIS / bmdU, AXIS / bmdL, CRAN / bmdU, CRAN / bmdL, EDEM / bmdU, EDEM / bmdL, LTRK / bmdU, LTRK / bmdL, MO24 / bmdU, MO24 / bmdL, MORT / bmdU, MORT: unit not given here; conditions: for BMC50 Any effect: Fig. 2 heatmap, exposure 6-24 hpf in vials, summary of all endpoints; for any effect BMD50: SI-T5; for bmd, MO24: endpoint MO24; for bmd, MORT: endpoint MORT; for bmd, ANY_: morphology endpoint ANY_ (any effect); for bmd, AXIS: morphology endpoint AXIS; for bmd, CRAN: morphology endpoint CRAN
Procedure: as §1
Each treatment group was replicated over four vials, resulting in 32 embryos per treatment, split over two replicate 96-well plates per chemical. […] All reported concentrations were nominal water concentrations and are included in SI-T4.
At 24 hpf embryos were assessed for mortality (MO24). At 120 hpf embryos were assessed for abnormality in […] morphological endpoints: mortality (MORT), edemas (EDEM), bent axis (AXIS), touch response (TCHR), craniofacial (CRAN), muscular/cardiovascular (MUSC), lower trunk (LRTK), brain (BRAN), skin (SKIN), and notochord malformations (NC). Morphological assessments were made by a team of three to four individuals. The team was blinded to the identity, plate layout, and concentrations of the chemicals, thereby minimizing bias in morphological screening assessment. To ensure the assessments were consistent, concentration–response reproducibility of a parathion ethyl quality control plate was performed along with each experimental exposure set up. Details of all measured endpoints can be found at Developmental toxicity zebrafish phenotype atlas. […] Each endpoint was scored as a binary presence/absence and scores were compiled into an “Any effect” endpoint, the presence of abnormality in any individual endpoint.
The Any effect percent was used to calculate the BMC50, 50 % change relative to the background for each endpoint and chemical. All values were reported as the nominal exposure concentration.

[3] = tested on: zebrafish embryos, gene expression at 48 hpf; test: Targeted transcriptomics (TempO-Seq S1500+ zebrafish panel), differential expression; assay type: in vivo, Danio rerio; conditions: 20 μM, result in words
Procedure: Targeted transcriptomics were performed using the Biospyder™ TempO-Seq™ 96-well plate platform. This platform used detector oligos for a gene set of 3112 probes selected through data driven approaches and expert curation ([Balik-Meisner et al., 2019]). The targeted transcriptomics approach was selected to maximize the number of chemicals that could be included in the analysis while managing cost and data analysis requirements. Targeted transcriptomics were limited to 96 samples, three chemicals without morphological effects were excluded from the analysis to ensure n = 4 per chemical and n = 6 controls, excluded chemicals are indicated in SI-T3.
A single exposure concentration of 20 μM was chosen as the maximum possible concentration to elicit a biological response that also ensured enough viable animals for RNA collection for every chemical. The same concentration per chemical was chosen as opposed to a phenotypically anchored concentration due to variability in 48 hpf survival across chemicals at the same 120 hpf percent effect and to allow for a direct comparison of chemical potency and transcriptomic response. 48 hpf was chosen to ensure the measurement of transcriptomic responses prior to the emergence of observable phenotypic effects. This timepoint has been used extensively and enhanced the ability to compare our results across datasets. Exposure was conducted over two days, chemicals were split into day groups by numerical order of randomly generated internal labels, 11 chemicals and control each day, n = 48 embryos across six vials per treatment. Exposure was conducted as previously described in section 2.3. At 48 hpf embryos were collected for RNA extraction. Embryos from two exposure vials were kept for morphological effect assessments which were as expected based on screening results. From the remaining wells, six phenotypically normal embryos were collected and pooled in their vial groups into 1.5 mL Eppendorf tubes, placed on ice (~30 sec), excess medium was removed, placed back on ice (~30 sec), and 200 μL RNA shield was added. […] of n = 6 pooled embryos were collected from each treatment.
RNA was extracted from exposure groups on day one and day two. 100 μL of lysis buffer was added to each tube containing pooled embryo samples and 200 μL of RNA shield, the full contents of the tube were then transferred to the homogenization plate (2 mL deep 96-well plate pre-filled with 400 μL 1 mm zirconium beads and 500 μL of lysis buffer). The plate was homogenized for 1.5 min using the Mini-BeadBeater 96 (BioSpec Products, Bartlesville, OK, United States) and centrifuged for five min at 3000 rcf. 550 μL of the supernatant was distributed over two plates, each pre-filled with 275 μL of ethanol. RNA extraction was performed using the KingFisher Apex System (ThermoFisher Scientific, Waltham, MA, United States) and Quick-RNA Magbead kit (Zymo Research Corporation, Irvine, CA, Untied States). Briefly, this automated process uses Mag beads to collect RNA from the sample, after a series of washes and treatment with DNase the RNA is eluted in 50 μL of ultra-pure water. RNA quality was assessed using the 4150 TapeStation System (Agilent, Santa Clara, CA, United States). All samples used had RNA integrity number (RIN) scores >9.8. RNA concentration was determined using Quant-iT RNA Reagent and assay kit and Varioskan ALF multi-mode plate reader (ThermoFisher Scientific, Waltham, MA, United States) in duplicate, samples with high variability (coefficient of variance (CV) > 10) between reads were repeated in triplicate. The average of the quantification reads was used for RNA concentration normalization. […] All 94 samples were normalized using ultra-pure water to the lowest concentration sample − 14.9 ng/μL. […]

[4] = period dark, round 1, conc 3.125
[5] = period dark, round 1, conc 6.25
[6] = period dark, round 1, conc 12.5
[7] = period dark, round 2, conc 37.5
[8] = period light, round 1, conc 3.125
[9] = period light, round 1, conc 6.25
[10] = period light, round 1, conc 12.5
[11] = period light, round 2, conc 37.5

Row | SMILES | fold_change [1, 4] | fold_change [1, 5] | fold_change [1, 6] | fold_change ([1]; period dark, round 1, conc 25) | fold_change ([1]; period dark, round 2, conc 30) | fold_change [1, 7] | fold_change [1, 8] | fold_change [1, 9] | fold_change [1, 10] | fold_change ([1]; period light, round 1, conc 25) | fold_change ([1]; period light, round 2, conc 30) | fold_change [1, 11] | BMC50 MO24 (mortality at 24 hpf) ([2]; Fig. 2, nominal concentration) [µM] | BMC50 MORT (mortality at 120 hpf) ([2]; Fig. 2, nominal concentration) [µM] | BMC50 Any effect ([2]; nominal concentration) [µM] | any effect BMD50 [2] [µM] | bmd, MO24 ([2]; benchmark dose) | bmd, MORT ([2]; benchmark dose) | bmd, ANY_ ([2]; benchmark dose) | BMC50 AXIS (curved or bent body axis at 120 hpf) ([2]; Fig. 2, nominal concentration) [µM] | also measured
1 | Cc1cccc2cccc(C)c12 [1,8-dimethylnaphthalene] | -0.1333 | 0.3857 | -0.2522 | -0.4588 | -0.4155 | -0.7493 | 0.4922 | 0.5326 | -0.3791 | 0.4908 | -0.235 | -0.3043 | 49.8 | 48.7 | 41.2 | 41.15 | 49.8371 | 48.678 | 41.1508 | – | fold_change ([1]; period dark, round 2, conc 45): -0.6849; fold_change ([1]; period light, round 2, conc 45): 1.248
2 | CCc1cccc2ccccc12 [1-ethylnaphthalene] | 0.05526 | 0.06428 | -0.02558 | -0.1629 | -0.2464 | -0.2326 | -0.3674 | -0.401 | -0.744 | 0.4136 | 0.3971 | -0.206 | 44.6 | 41.9 | 33.7 | 33.7 | 44.6047 | 41.9285 | 33.6977 | 43.9 | BMC50 CRAN (craniofacial malformation at 120 hpf) ([2]; Fig. 2, nominal concentration): 46.3 µM; bmd, AXIS ([2]; benchmark dose): 43.8887; bmd, CRAN ([2]; benchmark dose): 46.3281
3 | Cc1cc2c(C)ccc(C)c2cc1C [1,4,6,7-tetramethylnaphthalene] | 0.4047 | -0.3364 | -0.3332 | – | – | – | -0.4049 | 0.02072 | -0.2213 | – | – | – | 35.4 | 29.4 | 20.5 | 20.47 | 35.4057 | 29.3744 | 20.4728 | 21.1 | BMC50 CRAN (craniofacial malformation at 120 hpf) ([2]; Fig. 2, nominal concentration): 23.9 µM; BMC50 EDEM (pericardial and/or yolk sac edema at 120 hpf) ([2]; Fig. 2, nominal concentration): 22.5 µM; BMC50 LTRK (lower trunk and/or caudal fin at 120 hpf) ([2]; Fig. 2, nominal concentration): 22.6 µM; bmd, AXIS ([2]; benchmark dose): 21.1106; bmd, CRAN ([2]; benchmark dose): 23.8517; bmd, EDEM ([2]; benchmark dose, morphology endpoint EDEM): 22.5215; bmd, LTRK ([2]; benchmark dose, morphology endpoint LTRK): 22.6067
4 | Cc1ccc2ccccc2c1 [2-methylnaphthalene] | 0.03896 | -0.06284 | 0.2024 | 0.07059 | – | – | -0.3603 | -0.05115 | 0.6486 | 0.2057 | – | – | – | – | – | – | – | – | – | – | fold_change ([1]; period dark, round 1, conc 50): -0.2156; fold_change ([1]; period light, round 1, conc 50): 0.2253; morphological effects (BMC50 for any morphological endpoint) ([2]; 0-50 μM, result in words): no morphological BMC50 values
5 | Cc1ccc(C)c2c(C)cccc12 [1,4,5-trimethylnaphthalene] | 0.1634 | 0.08749 | -0.2344 | – | – | – | -0.0344 | 0.04487 | 0.5316 | – | – | – | 27.7 | 23.5 | 19.7 | 19.74 | 27.7283 | 23.5002 | 19.7402 | – | nt5dc2 expression [3]: decreased expression; LPR behavioral effect ([1]; 120 hpf, light/dark periods, result in words): hyperactivity during the light period; fold_change ([1]; period dark, round 2, conc 12.8): 0.03668; fold_change ([1]; period dark, round 2, conc 16): -0.1932; fold_change ([1]; period dark, round 2, conc 20): 0.4872; fold_change ([1]; period light, round 2, conc 12.8): 0.4664; fold_change ([1]; period light, round 2, conc 16): -0.1141; fold_change ([1]; period light, round 2, conc 20): 1.443
